Measured values published in US20100093642A1, “NOVEL POLYPEPTIDES” (priority 2006, published 2010).
Values after ≈ are worked out from the molar mass of the structure shown. Where two headings read alike, the source gives them in different places. Residues, ends and D or L forms follow the SMILES beside them. No end group written: not given here.

Assays:
[1] = test system: human breast malignant carcinoma cell line MCF-7; type: cell-based; conditions: 24 hours, maximum 200 μg/ml
Protocol: (§1) The cytotoxic effects of the peptides on different human tumour cells were measured using the MTT colorimetric assay (Mosmann, 1983). […] Dissolved MIT is converted to an insoluble purple formazan by cleavage of the tetrazolium ring by dehydrogenase enzymes. This water insoluble formazan can be solubilized using isopropanol or other solvents and the dissolved material is measured spectrophotometrically. The absorbance was measured as a function of concentration of converted dye. The conversion of the soluble dye to the insoluble purple formazan is utilized in assays for measurement of cell proliferation. […] We used this assay to measure the degree of cell death caused by the peptides. MCF-7 was maintained in EMEM, A2058 in DMEM and […]-29 in RPMI-1640 medium supplemented with 10% heat inactivated […] and 1% L-glutamine-L-alanine in a humidified atmosphere of 5% CO2 at 37° C. The human embryonic fibroblast cell line, MRC-5 (which is normal fibroblasts), was cultured as a monolayer in MEM medium, under the same conditions as described for the tumour cell lines. Cells to be used in the assay were grown to a minimum of 75% confluency, trypsinated and split to single cell suspension, counted and centrifuged at 1500 rpm for 10 min. The cell pellet was resuspended to a concentration of 2×10^5 cells/ml (HT-29) or 1×10^5 (MRC-5, MCF7 and A2058) in DMEM without FBS and L-glutamine-L-alanine (assay-medium). All cell lines were routinely tested for mycoplasma infection using a PCR-based mycoplasma detection kit (MycoSensor PCR Assay Kit, Stratagene), following the supplier's instructions. All cell lines were mycoplasma free. The cytotoxicity was measured using the MTT method (Mosmann, 1983), with minor modifications. Different human tumour cells (1-2×10^5) were applied in 96-well culture plates in a volume of 100 μl DMEM medium and incubated at 37° C. for 24 hours. The medium was removed and the cells were treated with 100 μl of peptide solution (concentrations ranging from 0 to 200 μg/ml), diluted in a) RPMI-1640 medium supplemented with 5% heat inactivated FBS, or b) RPMI-1640 medium without FBS. The plates were incubated at 37° C. for 24 hours. Cells treated with Triton X-100 (1%) was used as positive control (100% killing) whereas cells plus medium only were used as negative control. […] A volume of 70 μl of the supernatant was then removed and […] (0.04 M HCl in isopropanol) added to each well. The plate was placed on a shaker for 1 hour at room temperature and read spectrophotometrically at 590 nm in a microtiter plate reader (DTX880 Multimode Detector, Beckman Coulter).

[2] = test system: human colorectal adenocarcinoma cell line HT-29; type: cell-based; conditions: 24 hours, maximum 200 μg/ml
Protocol: as §1

[3] = test system: human embryonic lung fibroblast cell line MRC-5; type: cell-based; conditions: normal fibroblasts, 24 hours, maximum 200 μg/ml
Protocol: as §1

[4] = test system: human skin malignant melanoma cell line A2058; type: cell-based; conditions: 24 hours, maximum 200 μg/ml
Protocol: as §1

E. coli (ATCC 25922) = type: cell-based, Escherichia coli
Protocol: (§2) The antibacterial activities of the different peptides were determined by continuous monitoring of bacterial growth with a Bioscreen C microbiology reader (Labsystems Oy, Helsinki, Finland). The test was performed in 100-well flat-bottomed honeycomb plates, in which 50 μl of test fractions were incubated with 50 μl of a suspension of an actively growing culture of bacteria diluted in Mueller Hinton medium to a starting concentration of 3×10^4 cells per ml. […] [NT] 13032) and S. aureus (ATCC 9144), were chosen as test bacteria. […] Polymyxin B (Sigma, St.

Pseudomonas aeruginosa = type: cell-based
Protocol: as §2

[5] = test system: C. glutamicum (ATCC 13032); type: cell-based, Corynebacterium glutamicum
Protocol: as §2

S. aureus (ATCC 9144) = type: cell-based, Staphylococcus aureus; conditions: ATCC 9144
Protocol: as §2

Botrytis cinerea 101 = conditions: 48 h
Protocol: (§3) The various derivates of P17 (brominated and non-brominated) were tested for their ability to inhibit fungal growth of the yeast strains Saccaharomyces cerevisiae sp, Candida albicans (ATCC 10231) and Rodotorula sp., and the filamentous strains Botrytis cinerea 101, Penicillium rogveforti, and Fusarium sp. All strains, except C. albicans, were a gift from Prof. A. Tronsmo (The Norwegian University of Life Sciences, Ås, Norway). The fungi were cultivated on potato dextrose agar, supplemented with 2% glucose, at room temperature. Before antifungal testing, the fungi were dissolved in potato dextrose broth (Difco) at half-strength. Cell concentration was determined and adjusted after counting in a Bürker chamber. The filamentous fungi were filtered through a piece of cotton before counting. An aliquot of 50 μl of fungal spores (final concentration 2×10^5 spores per ml) were inoculated in microtiter plates (96 wells) along with 50 μl peptide solution. Peptides, dissolved in distilled water, were tested at final concentrations (two-fold dilutions) ranging from 50 μM to 0.1 μM. Cultures were grown in the dark (without shaking) and with a moist chamber at 25° C. (37° C. for C. albicans). Growth inhibition was determined microscopically after 48 h of incubation. MIC was determined as the lowest concentration of peptide resulting in 50% inhibition of visible growth.

[6] = test system: Candida albicans (ATCC 10231); conditions: ATCC 10231, 48 h
Protocol: as §3

Saccharomyces cerevisiae = conditions: 48 h
Protocol: as §3

[7] = test system: Salmonella enterica serovar typhimurium (ATCC 14028); assay: Bacterial cell viability, lux luminescence and OD600, with or without LPS; type: cell-based; conditions: co-incubation with 2.5 μM Aeromonas salmonicida LPS
Excerpt: To evaluate the effect of antimicrobial peptides on the viability of bacteria in a fast and reliable manner we used the lux CDABE operon from Photorhabdus luminescens as a reporter system in gram negative test bacteria and the modified luxABCDE operon in S. aureus (Vesterlund et al. 2004). Bacterial bioluminescence is directly dependent on metabolic activity, since reduction equivalents are needed to drive light emission. Any form of interruption of bacterial cell integrity or metabolism will therefore be detected as a reduction in light emission.
For the assay we used S. aureus (RN4220), E. coli K-12 and Salmonella enterica serovar typhimurium (ATCC 14028) transformed with the respective lux-operon containing plasmids (Vesterlund et al. 2004).
For each experiment a fresh colony was picked from Luria-Bertani plates supplemented with 10 μg/ml of erythromycin in case of S. aureus and with 100 μg/ml of ampicillin in case of E. coli and S. enterica serovar Typhimurium. Each colony was suspended in 5 ml of Müller-Hinton medium with appropriate antibiotics. The culture was incubated over night at 37° C. in a shaking incubator. The next morning 0.5 ml of this culture was transferred to 30 ml fresh MH medium in an Erlenmeyer-flask supplemented with the respective antibiotic. The flask was incubated (200 rpm shaking; 37° C.) until an OD600 of 0.5-0.8 was reached. The culture was then diluted to an OD600 of about 0.02-0.03 before transfer to the 96 well opaque plates with optical bottom (Packard ViewPlate) used for the assay.
The synthesized peptides were dissolved in water and aliquots frozen at −18° C. until use. Twofold dilutions of test peptides (final concentrations ranging from 0.31 to 80 μM) were directly prepared in 96 well microtiter plates in a volume of 10 μl in water. 90 μl is of indicator bacteria in MH medium were added directly to the prepared and pre-warmed (30 minutes at 37° C.) plate before starting the measurement in a Victor multiplate reader (Perkin Elmer) at 37° C. Both OD600 and luminescence in counts per second (cps) were followed over 5 hours in measuring intervals of 5 minutes. The plates where shaken before each measurement (20 sec.; 5 mm orbital shaking; 10 sec waiting). The growth curves and light emission curves were drawn and evaluated to determine the MIC for each indicator strain. The MIC was defined as the concentration of test compound causing more than 50% reduction in bioluminescence (cps) or optical density (OD600) after 5 hours, compared to the growth control. Cecropin P1 was used as positive control. The results (table 14a-b) confirm the results obtained in example 2, showing a pronounced antibacterial effect of the longest peptide fragments. […] The partial peptides P17 HC (1-20), both bromated and unbromated, inhibit growth only in higher concentrations.
A second plate with an otherwise similar setup (as described for the luminescence assay in example 3) was prepared, but with addition of Aeromonas salmonicida LPS to the peptide dilutions before pre-warming. The LPS end concentration in each well was approximately 2.5 μM.

[8] = RPMI-1640 medium containing 5% FBS

Compound | Antitumoral activity IC50, MCF-7 [1, 8] | Antitumoral activity IC50, MCF-7 ([1]; serum-free RPMI-1640 medium) | Antitumoral activity IC50, HT-29 [2, 8] | Antitumoral activity IC50, HT-29 ([2]; serum-free RPMI-1640 medium) | IC50, MRC-5 [3, 8] | IC50, MRC-5 ([3]; serum-free RPMI-1640 medium) | Antitumoral activity IC50, A2058 [4, 8] | Antitumoral activity IC50, A2058 ([4]; serum-free RPMI-1640 medium) | Minimal inhibitory concentration, E. coli (E. coli (ATCC 25922)) [µM] | Minimal inhibitory concentration, P. aeruginosa (Pseudomonas aeruginosa) [µM] | Minimal inhibitory concentration, C. glutamicum [5] [µM] | Minimal inhibitory concentration, S. aureus (S. aureus (ATCC 9144)) [µM] | Minimal inhibitory concentration (MIC), Botrytis cinerea (Botrytis cinerea 101) [µM] | Minimal inhibitory concentration (MIC), Candida albicans [6] [µM] | Minimal inhibitory concentration (MIC), Saccharomyces cerevisiae (Saccharomyces cerevisiae) [µM] | MIC, more than 50% reduction in optical density, S. enterica, P + LPS ([7]; OD600, 5 hours) [µM] | MIC, more than 50% reduction in luminescence, S. enterica, P + LPS ([7]; luminescence (cps), 5 hours) [µM]
NC(Cc1c[nH]c2ccc(Br)cc12)C(=O)O [5-D/L-Br-Trp, 5-Bromo-D/L-tryptophan, reference compound] | — (The symbol “—” denotes no activity within the concentration range tested.) | — (The symbol “—” denotes no activity within the concentration range tested.) | — (The symbol “—” denotes no activity within the concentration range tested.) | * (The symbol “*” denotes 30-50% killing at the highest concentration tested.) | * (The symbol “*” denotes 30-50% killing at the highest concentration tested.) | * (The symbol “*” denotes 30-50% killing at the highest concentration tested.) | — (The symbol “—” denotes no activity within the concentration range tested.) | — (The symbol “—” denotes no activity within the concentration range tested.) |  |  |  |  |  |  |  |  | 
GWFKKTFHKV [P17 HC (1-10)] |  |  |  |  |  |  |  |  | 100 | 100 | 12.5 | >100 | 100 | 25 | 25 |  | 
NCCCC[C@H](NC(=O)[C@H](CCCCN)NC(=O)[C@H](Cc1ccccc1)NC(=O)C(Cc1c[nH]c2ccc(Br)cc12)NC(=O)CN)C(=O)O (stereo partly shown) [P17 HC-Br (1-5)] (HELM PEPTIDE1{G.[O=C(C(Cc1c[nH]c2ccc(Br)cc12)N[*:1])[*:2]].F.K.K}$$$$V2.0; N-terminus and C-terminus assumed) |  |  |  |  |  |  |  |  | 25 (≈ 18.6 µg/mL) | >50 |  | >100 | >100 | >100 | >100 |  | 
CC(C)[C@H](NC(=O)[C@H](CCCCN)NC(=O)[C@H](Cc1c[nH]cn1)NC(=O)[C@H](Cc1ccccc1)NC(=O)[C@@H](NC(=O)[C@H](CCCCN)NC(=O)[C@H](CCCCN)NC(=O)[C@H](Cc1ccccc1)NC(=O)C(Cc1c[nH]c2ccc(Br)cc12)NC(=O)CN)[C@@H](C)O)C(=O)O (stereo partly shown) [P17 HC-Br (1-10)] (HELM PEPTIDE1{G.[O=C(C(Cc1c[nH]c2ccc(Br)cc12)N[*:1])[*:2]].F.K.K.T.F.H.K.V}$$$$V2.0; N-terminus and C-terminus assumed) |  |  |  |  |  |  |  |  | 25 (≈ 33.9 µg/mL) | >50 |  | >100 | 50 (≈ 67.8 µg/mL) | 25 (≈ 33.9 µg/mL) | 25 (≈ 33.9 µg/mL) | 40 | 20
GWFKK [P17 HC (1-5)] |  |  |  |  |  |  |  |  | >100 | >100 | >100 | >100 | >100 | >100 | >100 |  | 
GQRGCSALGF [P17 HC (21-30)] |  |  |  |  |  |  |  |  | >100 | >100 | >100 | >100 | >100 | >100 | >100 |  | 
